Test results published in patent US20120015029A1, “DIRECT COMPRESSION FORMULATION AND PROCESS” (priority 2005, published 2012).

How the values were obtained:
[1] = Water sorption/desorption isotherm (dynamic vapor sorption, DVS-1); details: 25° C., 85% RH
[2] = Pharmacokinetic drug-drug interaction study vildagliptin 100 mg qd and metformin 1000 mg qd in patients with type 2 diabetes; type: in vivo, human; details: type 2 diabetes patients, steady state, vildagliptin 100 mg qd FMI tablets alone or with metformin 1000 mg qd, 5 days
Description: Subjects are given an end-of-study evaluation on the last day of period 2 (Day 20). For all treatment periods, subjects fasted for a minimum of 10 hours pre-dose to 4 hours post-dose. Subjects are considered to have completed the study when all safety and pharmacokinetic evaluations have been completed.
The pharmacokinetic profiles are illustrated in FIG. 5.

Row | hygroscopicity [1] | moisture gain [1] [%] | Tmax median [2] [h] | Compound
1 | only very slightly hygroscopic | 0.9 | – | N#C[C@@H]1CCCN1C(=O)CNC12CC3CC(CC(O)(C3)C1)C2 [Crystalline vildagliptin Form A, (S)-1-[(3-hydroxy-1-adamantyl)amino]acetyl-2-cyano-pyrrolidine]
2 | hygroscopic | 4.2 | – | N#C[C@@H]1CCCN1C(=O)CNC12CC3CC(CC(O)(C3)C1)C2 [vildagliptin amorphous form, (S)-1-[(3-hydroxy-1-adamantyl)amino]acetyl-2-cyano-pyrrolidine]
3 | – | – | 1.00 | N#C[C@@H]1CCCN1C(=O)CNC12CC3CC(CC(O)(C3)C1)C2 [vildagliptin, (S)-1-[(3-hydroxy-1-adamantyl)amino]acetyl-2-cyano-pyrrolidine]
